The text below walks through data of patent EP2582674B1 (Cymabay Therapeutics, Inc., priority 2010, dated 2011).

One experiment has as its target T1, human GPR120 (Homo sapiens, UniProt Q5NUL3).
T1 construct: host or cells: HEK293 cells co-expressing Gqi5
T1 sequence (Q5NUL3 1-361): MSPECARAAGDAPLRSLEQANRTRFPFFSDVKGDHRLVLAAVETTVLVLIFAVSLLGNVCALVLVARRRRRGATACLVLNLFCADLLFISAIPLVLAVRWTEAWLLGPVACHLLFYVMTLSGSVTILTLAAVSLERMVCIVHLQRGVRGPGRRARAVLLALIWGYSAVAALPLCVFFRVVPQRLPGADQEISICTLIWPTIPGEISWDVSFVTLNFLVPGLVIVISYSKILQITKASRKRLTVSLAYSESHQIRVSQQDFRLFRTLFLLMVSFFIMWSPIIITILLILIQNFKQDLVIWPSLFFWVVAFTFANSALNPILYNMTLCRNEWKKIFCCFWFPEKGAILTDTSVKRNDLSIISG
The experiment in a line: Intracellular Ca2+ assay in human GPR120 stable cell line (FLIPR Calcium 4 dye, Flexstation). The format is cell-based. As to conditions: % activity at 2.5 µM compared to the maximal activity of the compound of Example 25 at 2.5 µM (=100%); HEK293 cells co-expressing Gqi5. The protocol: Human GPR120 stable cell line was purchased from Multispan Inc (26219 Eden Landing Road, Hayward, CA94545). This GPR120 cell line was generated in HEK293 cells co-expressing Gqi5. In this cell line, the Flag epitope tag (DYKDDDDK) was fused to the amino terminus of human GPR120 protein.
The concentration of intracellular Ca^2+ was measured as described below. Human GPR120 cells were plated in 96 well plates (Poly-D-Lysine coated black/clear Plate, Greiner Bio-One) at 70,000 cells per well and cultured overnight in conditions of 37°C and 5% CO2. A Ca^2+ assay dye stock solution was prepared by adding 10 mL of assay buffer (HBSS/20mM HEPES, pH 7.4) to FLIPR Calcium 4 Assay Bulk Kit (Molecular Devices). The 10 mL of Ca^2+ assay dye solution was prepared by further diluting 0.5 mL of Ca^2+ assay dye stock solution with 10 mL of assay buffer. The medium of the cells was removed and immediately 100 µL of the Ca^2+ assay dye solution was dispensed into each well followed by incubation at 37°C and 5% CO2 for 50 minutes to incorporate the Ca^2+ dye into the cells. The cell plate was then placed in the Flexstation (Molecular Devices) for 20 minutes at 37°C. Compounds were dissolved in 100% DMSO and diluted to desired concentrations with assay buffer and placed in the Flexstation simultaneously with the cell plate for 20 minute incubation at 37°C prior to reading. Fluorescence intensity was measured immediately following compound addition (25 µL/well) on the Flexstation at an excitation wavelength of 485 nm and an emission wavelength of 525 with 515 nm auto cutoff. The resulting increase in fluorescence intensities corresponds to increases in intracellular Ca^2+ levels.
Compounds were dissolved in 100% DMSO to a concentration of 20 mM to provide stock solutions. To determine activity against human GPR120, compounds were added with human GPR120 stably expressing cells (described above), at eight desired concentrations ranging from 0.00001 to 20 µM, in 96 well plates and fluorescence intensities were measured for 90 seconds with 2-second intervals. An EC50 value (concentration of the GPR120 agonist where 50% of the agonist's maximal activity is observed) was calculated using the changes (Max-Min) of fluorescence intensity.
To determine percent activity for a tested compound, the fluorescence intensity value obtained at a particular concentration were compared to the maximal fluorescence intensity value obtained for reference compound GW9508 (4-[[(3-phenoxyphenyl)methyl]amino]benzene propanoic acid; British Journal of Pharmacology 2006 148, 619-628) or the compound of Example 25. When GW9508 was used as the reference compound, the maximal activity of GW9508 at 6.7µM was designated as 100% activity. When the compound of Example 25 was used as the reference compound, the maximal activity of the compound of Example 25 at 2.5 µM was designated as 100% activity. Typically, the GW9508 activity reached a maximum at a concentration of approximately 6.7 µM and typically the compound of Example 25 reached a maximum activity at approximately 2.5µM. […]
Consider “2-(4-((5-fluoro-3H-spiro[benzofuran-2,1'-cyclopentane]-7-yl)methoxy)phenyl)cyclopropanecarboxylic acid [Example 165]”, for which the “% Activity (Ex. 25 Reference Compound)” value was found to be 158.08%.

As to `CC1(C)Cc2cc(F)cc(COc3c(F)cc(CC4CC4C(=O)O)cc3F)c2O1` (single isomer, unassigned) [Example 184A, 2-(3,5-difluoro-4-((5-fluoro-2,2-dimethyl-2,3-dihydrobenzofuran-7-yl)methoxy)benzyl)cyclopropanecarboxylic acid], the “% Activity (Ex. 25 Reference Compound)” value is on record as 95.58%.

For `CC1(C)Cc2cc(F)cc(COc3c(F)cc(CC4CC4C(=O)O)cc3F)c2O1` (single isomer, unassigned) [Example 184B, 2-(3,5-difluoro-4-((5-fluoro-2,2-dimethyl-2,3-dihydrobenzofuran-7-yl)methoxy)benzyl)cyclopropanecarboxylic acid], the “% Activity (Ex. 25 Reference Compound)” value is 130.66%.

The same experiment, now with this note: HEK293, % activity at 5 µM compared to the maximal activity of GW9508 at 6.7 µM (=100%); HEK293 cells co-expressing Gqi5; read-out: %Activity (GW9508 Reference Compound).
For the compound `CC(Cc1cc(F)c(OCc2cccc3c2OC(C)(C)CC3)c(F)c1)C(=O)O` (centres unmarked) [Example 2, 3-(4-((2,2-dimethylchroman-8-yl)methoxy)-3,5-difluorophenyl)-2-methylpropanoic acid], the activity at 5 µM turned out to be 135%.

Take `CC(Cc1cc(F)c(OCc2cccc3c2OCC3)c(F)c1)C(=O)O` (centres unmarked) [Example 3, 3-(4-((2,3-dihydrobenzofuran-7-yl)methoxy)-3,5-difluorophenyl)-2-methylpropanoic acid]: the activity at 5 µM was 124%.

As to `Cc1cc(COc2ccc(CC(C)C(=O)O)cc2)c2c(c1)CC(C)(C)O2` (centres unmarked) [Example 4, 2-methyl-3-(4-((2,2,5-trimethyl-2,3-dihydrobenzofuran-7-yl)methoxy)phenyl)propanoic acid], the activity at 5 µM came to 111%.

As to `Cc1cc(COc2c(F)cc(CC(C)C(=O)O)cc2F)c2c(c1)CC(C)(C)O2` (centres unmarked) [Example 5, 3-(3,5-difluoro-4-((2,2,5-trimethyl-2,3-dihydrobenzofuran-7-yl)methoxy)phenyl)-2-methylpropanoic acid], the activity at 5 µM came out at 149%.

Regarding `Cc1cc(CC(C)C(=O)O)ccc1OCc1cc(F)cc2c1OC(C)(C)C2` (centres unmarked) [Example 6, 3-(4-((5-fluoro-2,2-dimethyl-2,3-dihydrobenzofuran-7-yl)methoxy)-3-methylphenyl)-2-methylpropanoic acid], the activity at 5 µM was 147%.

On to `COc1cc(CC(C)C(=O)O)ccc1OCc1cc(F)cc2c1OC(C)(C)C2` (centres unmarked) [Example 7, 3-(4-((5-fluoro-2,2-dimethyl-2,3-dihydrobenzofuran-7-yl)methoxy)-3-methoxyphenyl)-2-methylpropanoic acid], for which the activity at 5 µM is 168%.

For `CC(Cc1ccc(OCc2cc(F)cc3c2OC(C)(C)C3)c(F)c1)C(=O)O` (centres unmarked) [Example 8, 3-(3-fluoro-4-((5-fluoro-2,2-dimethyl-2,3-dihydrobenzofuran-7-yl)methoxy)phenyl)-2-methylpropanoic acid], the activity at 5 µM is 135%.

Turning to `Cc1cc(CC(C)C(=O)O)ccc1OCc1cc(Cl)cc2c1OC(C)(C)C2` (centres unmarked) [Example 11, 3-(4-((5-chloro-2,2-dimethyl-2,3-dihydrobenzofuran-7-yl)methoxy)-3-methylphenyl)-2-methylpropanoic acid], the activity at 5 µM turned out to be 124%.

Take `CC(Cc1ccc(OCc2cc(Cl)cc3c2OC(C)(C)C3)c(Cl)c1)C(=O)O` (centres unmarked) [Example 12, 3-(3-chloro-4-((5-chloro-2,2-dimethyl-2,3-dihydrobenzofuran-7-yl)methoxy)phenyl)-2-methylpropanoic acid]: the activity at 5 µM was 116%.

`CC(Cc1cc(Cl)c(OCc2cc(Cl)cc3c2OC(C)(C)C3)c(Cl)c1)C(=O)O` (centres unmarked) [Example 14, 3-(3,5-dichloro-4-((5-chloro-2,2-dimethyl-2,3-dihydrobenzofuran-7-yl)methoxy)phenyl)-2-methylpropanoic acid]: the activity at 5 µM was found to be 84.5%.

As for `COc1cc(CC(C)C(=O)O)ccc1OCc1cc(Cl)cc2c1OC(C)(C)C2` (centres unmarked) [Example 15, 3-(4-((5-chloro-2,2-dimethyl-2,3-dihydrobenzofuran-7-yl)methoxy)-3-methoxyphenyl)-2-methylpropanoic acid], the activity at 5 µM stood at 109%.

With `CC(Cc1ccc(OCc2cccc3c2CC(C)(C)O3)cc1)C(=O)O` (centres unmarked) [Example 17, 3-(4-((2,2-dimethyl-2,3-dihydrobenzofuran-4-yl)methoxy)phenyl)-2-methylpropanoic acid], the activity at 5 µM was 72.2%.

As for `CC(Cc1cc(F)c(OCc2cc(F)cc3c2OC(C)(C)C3)c(F)c1)C(=O)O` (centres unmarked) [Example 18, 3-(3,5-difluoro-4-((5-fluoro-2,2-dimethyl-2,3-dihydrobenzofuran-7-yl)methoxy)phenyl)-2-methylpropanoic acid], the activity at 5 µM was 130%.

As to `CC1(C)Cc2cc(F)cc(COc3c(F)cc(C4CC4C(=O)O)cc3F)c2O1` (centres unmarked) [Example 19, 2-(3,5-difluoro-4-((5-fluoro-2,2-dimethyl-2,3-dihydrobenzofuran-7-yl)methoxy)phenyl)cyclopropanecarboxylic acid], the activity at 5 µM was found to be 126%.

On to `CC1Cc2cccc(COc3c(F)cc(CCC(=O)O)cc3F)c2O1` (centres unmarked) [Example 20], for which the activity at 5 µM was 138%.

In the case of `CC(Cc1cc(F)c(OCc2cccc3c2CC(C)(C)O3)c(F)c1)C(=O)O` (centres unmarked) [Example 21, 3-(4-((2,2-dimethyl-2,3-dihydrobenzofuran-4-yl)methoxy)-3,5-difluorophenyl)-2-methylpropanoic acid], the activity at 5 µM came to 113%.

On to `CC1(C)Cc2c(COc3c(F)cc(C4CC4C(=O)O)cc3F)cccc2O1` (centres unmarked) [Example 22, 2-(4-((2,2-dimethyl-2,3-dihydrobenzofuran-4-yl)methoxy)-3,5-difluorophenyl) cyclopropanecarboxylic acid], for which the activity at 5 µM stood at 126%.

With `CC(Cc1cc(F)c(OCc2cccc3c2OC(C)(C)C3)c(F)c1)C(=O)O` (centres unmarked) [Example 23, 3-(4-((2,2-dimethyl-2,3-dihydrobenzofuran-7-yl)methoxy)-3,5-difluorophenyl)-2-methylpropanoic acid], the activity at 5 µM was 113%.

Regarding `CC1(C)Cc2cccc(COc3c(F)cc(C4CC4C(=O)O)cc3F)c2O1` (centres unmarked) [Example 24, 2-(4-((2,2-dimethyl-2,3-dihydrobenzofuran-7-yl)methoxy)-3,5-difluorophenyl) cyclopropanecarboxylic acid], the activity at 5 µM was found to be 100%.

For the compound `CC1(C)Cc2cccc(COc3c(F)cc(CCC(=O)O)cc3F)c2O1` [Example 25, 3-(4-((2,2-dimethyl-2,3-dihydrobenzofuran-7-yl)methoxy)-3,5-difluorophenyl)propanoic acid], the activity at 5 µM was determined as 102%.

With `CC(Cc1ccc(OCc2cc(Cl)cc3c2OC(C)(C)C3)cc1Cl)C(=O)O` (centres unmarked) [Example 26, 3-(2-chloro-4-((5-chloro-2,2-dimethyl-2,3-dihydrobenzofuran-7-yl)methoxy)phenyl)-2-methylpropanoic acid], the activity at 5 µM worked out at 164%.

For `CC1(C)Cc2c(F)ccc(COc3c(F)cc(C4CC4C(=O)O)cc3F)c2O1` (centres unmarked) [Example 27, 2-(3,5-difluoro-4-((4-fluoro-2,2-dimethyl-2,3-dihydrobenzofuran-7-yl)methoxy)phenyl)cyclopropanecarboxylic acid], the activity at 5 µM is 144%.

Staying with this experiment, now noted: typical value, reference compounds of the Ca2+ assay.
With `CC1(C)Cc2cccc(COc3c(F)cc(CCC(=O)O)cc3F)c2O1` [Example 25, 3-(4-((2,2-dimethyl-2,3-dihydrobenzofuran-7-yl)methoxy)-3,5-difluorophenyl)propanoic acid], the “concentration at which activity reached a maximum” value was “approximately 2.5 µM”.
